Patent US6355799B1, “Substituted benzene compounds, process for their preparation, and herbicidal and defoliant compositions containing them” (ISK Americas Incorporated, priority 1997, dated 2002)

Legend:
Format in all cases: in vivo
[1] = tested on: lambsquarters (Chenopodium album, CHEAL); test: Post-emerge test, greenhouse herbicide activity screening; settings: rating scale 0-100 (0 no damage, 100 complete death), 14 days after application
Summary of the method: (§1)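 Each test used a mechanized track sprayer delivering 187 l/ha of acetone solution at 15–1000 g ai/ha. Post-emerge foliage at 2–3 leaves was treated with added 0.25% v/v non-ionic surfactant and bottom-watered only. Injury was assessed on day 14, where 100 means total kill.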

[2] = tested on: johnsongrass (Sorghum halepense, SORHA); test: as above; settings: rating scale 0-100 (0 no damage, 100 complete death), 14 days after application
Summary of the method: as §1

[3] = tested on: velvetleaf (Abutilon theophrasti, ABUTH); test: as above; settings: rating scale 0-100 (0 no damage, 100 complete death), 14 days after application
Summary of the method: as §1

[4] = tested on: barnyardgrass (Echinochloa crus-galli, ECHCG); test: as above; settings: rating scale 0-100 (0 no damage, 100 complete death), 14 days after application
Summary of the method: as §1

[5] = tested on: common ragweed (Ambrosia artemisizfolia L., AMBEL); test: as above; settings: rating scale 0-100 (0 no damage, 100 complete death), 14 days after application
Summary of the method: as §1

[6] = tested on: ivyleaf morningglory (Ipomoea hederacea, IPOHE); test: as above; settings: rating scale 0-100 (0 no damage, 100 complete death), 14 days after application
Summary of the method: as §1

[7] = tested on: large crabgrass (Digitaria sanguinalis, DIGSA); test: as above; settings: rating scale 0-100 (0 no damage, 100 complete death), 14 days after application
Summary of the method: as §1

[8] = tested on: sicklepod (Cassia obtusifolia, CASOB); test: as above; settings: rating scale 0-100 (0 no damage, 100 complete death), 14 days after application
Summary of the method: as §1

[9] = tested on: redroot pigweed (Amaranthus retroflexus, AMARE); test: as above; settings: rating scale 0-100 (0 no damage, 100 complete death), 14 days after application
Summary of the method: as §1

[10] = tested on: green foxtail (Setaria viridis, SETVI); test: as above; settings: rating scale 0-100 (0 no damage, 100 complete death), 14 days after application
Summary of the method: as §1

[11] = tested on: lambsquarters (Chenopodium album, CHEAL); test: Pre-emerge test, greenhouse herbicide activity screening; settings: rating scale 0-100, 14 days after application
Summary of the method: (§2)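 Compounds in acetone were track-sprayed at 15–1000 g ai/ha: pre-emergence onto soil sown the previous day, then top-watered to incorporate and later bottom-watered; post-emergence onto 2–3 leaf plants with 0.25% v/v surfactant, bottom-watered only. Ratings on a 0–100 phytotoxicity scale were taken at day 14.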

[12] = tested on: johnsongrass (Sorghum halepense, SORHA); test: as above; settings: rating scale 0-100, 14 days after application
Summary of the method: as §2

[13] = tested on: velvetleaf (Abutilon theophrasti, ABUTH); test: as above; settings: rating scale 0-100, 14 days after application
Summary of the method: as §2

[14] = tested on: barnyardgrass (Echinochloa crus-galli, ECHCG); test: as above; settings: rating scale 0-100, 14 days after application
Summary of the method: as §2

[15] = tested on: ivyleaf morningglory (Ipomoea hederacea, IPOHE); test: as above; settings: rating scale 0-100, 14 days after application
Summary of the method: as §2

[16] = tested on: large crabgrass (Digitaria sanguinalis, DIGSA); test: as above; settings: rating scale 0-100, 14 days after application
Summary of the method: as §2

[17] = tested on: sicklepod (Cassia obtusifolia, CASOB); test: as above; settings: rating scale 0-100, 14 days after application
Summary of the method: as §2

[18] = tested on: green foxtail (Setaria viridis, SETVI); test: as above; settings: rating scale 0-100, 14 days after application
Summary of the method: as §2

[19] = tested on: redroot pigweed (Amaranthus retroflexus, AMARE); test: as above; settings: rating scale 0-100, 14 days after application
Summary of the method: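 Compounds in acetone were track-sprayed at 187 l/ha, 15–1000 g ai/ha, onto sandy loam pots. Pre-emerge seeds were sown one day before spraying, with surface watering afterwards. Post-emerge plants were at the 2–3 leaf stage and sprayed with 0.25% v/v non-ionic surfactant. Injury was rated 0–100 at 14 days.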

[20] = tested on: upland rice (Oryza sp., var. Tebonnet, RICE); test: Post-emerge test, crop safety; settings: rating scale 0-100 (0 no damage, 100 complete death), 14 days after application
Summary of the method: (§3)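 Rating: 0–100 visual injury, 14 DAA. Application: acetone, 187 l/ha, 15–1000 g ai/ha, flat-fan track sprayer with nozzle 40–45 cm above soil or canopy. Post-emerge runs used 0.25% v/v surfactant on 2–3 leaf plants.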

[21] = tested on: field corn (Zea mays L., var. Dekalb 535, CORN); test: Post-emerge test, crop safety; settings: rating scale 0-100 (0 no damage, 100 complete death), 14 days after application
Summary of the method: as §3

[22] = tested on: upland rice (Oryza sp., var. Tebonnet, RICE); test: Pre-emerge test, crop safety; settings: rating scale 0-100, 14 days after application
Summary of the method: (§4)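 Applied at 15–1000 g ai/ha from acetone in 187 l/ha spray volume. Post-emergence applications included 0.25% v/v non-ionic surfactant and reached plants sown 8–21 days before. Pre-emergence applications were incorporated by surface watering. Efficacy or crop damage was rated on a 0–100 scale after 14 days.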

[23] = tested on: field corn (Zea mays L., var. Dekalb 535, CORN); test: Pre-emerge test, crop safety; settings: rating scale 0-100, 14 days after application
Summary of the method: as §4

CCOCCOC(=O)C(Cl)Cc1c(OC)c(Cl)cc(F)c1-n1c(=O)cc(C(F)(F)F)n(C)c1=O (stereo not shown) [14-26] was tested, and the “Post-emerge Herbicidal Activity, phytotoxicity rating CHEAL” value ([1]; Rate 63 g ai/ha) was 60, the “Post-emerge Herbicidal Activity, phytotoxicity rating CHEAL” value ([1]; Rate 250 g ai/ha) was 100 and the “Post-emerge Herbicidal Activity, phytotoxicity rating SORHA” value ([2]; Rate 63 g ai/ha) was 30. The “Post-emerge Herbicidal Activity, phytotoxicity rating SORHA” value ([2]; Rate 250 g ai/ha) was 70, the “Post-emerge Herbicidal Activity, phytotoxicity rating ABUTH” value ([3]; Rate 63 g ai/ha) was 70 and the “Post-emerge Herbicidal Activity, phytotoxicity rating ABUTH” value ([3]; Rate 250 g ai/ha) was 100. The “Post-emerge Herbicidal Activity, phytotoxicity rating ECHCG” value ([4]; Rate 63 g ai/ha) was 100, the “Post-emerge Herbicidal Activity, phytotoxicity rating ECHCG” value ([4]; Rate 250 g ai/ha) was 100 and the “Post-emerge Herbicidal Activity, phytotoxicity rating AMBEL” value ([5]; Rate 63 g ai/ha) was 100. The “Post-emerge Herbicidal Activity, phytotoxicity rating AMBEL” value ([5]; Rate 250 g ai/ha) was 100, the “Post-emerge Herbicidal Activity, phytotoxicity rating IPOHE” value ([6]; Rate 63 g ai/ha) was 20 and the “Post-emerge Herbicidal Activity, phytotoxicity rating IPOHE” value ([6]; Rate 250 g ai/ha) was 100. The “Post-emerge Herbicidal Activity, phytotoxicity rating DIGSA” value ([7]; Rate 63 g ai/ha) was 100, the “Post-emerge Herbicidal Activity, phytotoxicity rating DIGSA” value ([7]; Rate 250 g ai/ha) was 100 and the “Post-emerge Herbicidal Activity, phytotoxicity rating CASOB” value ([8]; Rate 63 g ai/ha) was 50. The “Post-emerge Herbicidal Activity, phytotoxicity rating CASOB” value ([8]; Rate 250 g ai/ha) was 90, the “Post-emerge Herbicidal Activity, phytotoxicity rating AMARE” value ([9]; Rate 63 g ai/ha) was 90 and the “Post-emerge Herbicidal Activity, phytotoxicity rating AMARE” value ([9]; Rate 250 g ai/ha) was 100. For the same compound, the “Post-emerge Herbicidal Activity, phytotoxicity rating SETVI” value ([10]; Rate 63 g ai/ha) was 0, the “Post-emerge Herbicidal Activity, phytotoxicity rating SETVI” value ([10]; Rate 250 g ai/ha) was 0 and the “Pre-emerge herbicidal activity, phytotoxicity rating CHEAL” value ([11]; 63 g ai/ha) was 70. For the same compound, the “Pre-emerge herbicidal activity, phytotoxicity rating CHEAL” value ([11]; 250 g ai/ha) was 100, the “Pre-emerge herbicidal activity, phytotoxicity rating SORHA” value ([12]; 63 g ai/ha) was 0 and the “Pre-emerge herbicidal activity, phytotoxicity rating SORHA” value ([12]; 250 g ai/ha) was 70. For the same compound, the “Pre-emerge herbicidal activity, phytotoxicity rating ABUTH” value ([13]; 63 g ai/ha) was 80, the “Pre-emerge herbicidal activity, phytotoxicity rating ABUTH” value ([13]; 250 g ai/ha) was 100 and the “Pre-emerge herbicidal activity, phytotoxicity rating ECHCG” value ([14]; 63 g ai/ha) was 0. The “Pre-emerge herbicidal activity, phytotoxicity rating ECHCG” value ([14]; 250 g ai/ha) was 95, the “Pre-emerge herbicidal activity, phytotoxicity rating IPOHE” value ([15]; 63 g ai/ha) was 0 and the “Pre-emerge herbicidal activity, phytotoxicity rating IPOHE” value ([15]; 250 g ai/ha) was 0. For the same compound, the “Pre-emerge herbicidal activity, phytotoxicity rating DIGSA” value ([16]; 63 g ai/ha) was 50, the “Pre-emerge herbicidal activity, phytotoxicity rating DIGSA” value ([16]; 250 g ai/ha) was 95 and the “Pre-emerge herbicidal activity, phytotoxicity rating CASOB” value ([17]; 63 g ai/ha) was 0. The “Pre-emerge herbicidal activity, phytotoxicity rating CASOB” value ([17]; 250 g ai/ha) was 20, the “Pre-emerge herbicidal activity, phytotoxicity rating SETVI” value ([18]; 63 g ai/ha) was 0 and the “Pre-emerge herbicidal activity, phytotoxicity rating SETVI” value ([18]; 250 g ai/ha) was 99. The “Pre-emerge herbicidal activity, phytotoxicity rating AMARE” value ([19]; 63 g ai/ha) was 100, the “Pre-emerge herbicidal activity, phytotoxicity rating AMARE” value ([19]; 250 g ai/ha) was 100 and the “Post-emerge phytotoxicity rating RICE (crop damage)” value ([20]; Rate 63 g ai/ha) was 10. The “Post-emerge phytotoxicity rating RICE (crop damage)” value ([20]; Rate 250 g ai/ha) was 10, the “Post-emerge phytotoxicity rating CORN (crop damage)” value ([21]; Rate 63 g ai/ha) was 40 and the “Post-emerge phytotoxicity rating CORN (crop damage)” value ([21]; Rate 250 g ai/ha) was 100. The “Pre-emerge phytotoxicity rating, crop damage RICE” value ([22]; 63 g ai/ha) was 0, the “Pre-emerge phytotoxicity rating, crop damage RICE” value ([22]; 250 g ai/ha) was 80 and the “Pre-emerge phytotoxicity rating, crop damage CORN” value ([23]; 63 g ai/ha) was 0. The “Pre-emerge phytotoxicity rating, crop damage CORN” value ([23]; 250 g ai/ha) was 50.
